Patent publication EP0576227A2, “2'-Deoxy-2',2'-difluoro(2,6,8-substituted) purine nucleosides having anti-viral and anti-cancer activity and intermediates” (ELI LILLY AND COMPANY, priority 1992, dated 1993)
Values after ≈ are worked out from the molar mass of the structure shown.

Legend:
[1] = system: Human Cytomegalovirus (HCMV) strain AD169; test: Human Cytomegalovirus Test (plaque inhibition in WI-38 cells); format: cell-based; details: read-out: Percent Plaque Inhibition at Specified µg/ml conc.
Protocol: WI-38 cells (American Type Culture Collection; CCL-35) were seeded into 24-well plates in MEM media (GIBCO) supplemented with 10% fetal bovine serum and penicillin/streptomycin. The plates wre incbated at 37°C, in 5 percent carbon dioxide in a humidified incubator for 3 days. Human Cytomegalovirus (HCMV) strain AD169 (American Type Culture Collection) was added to each well (40 plaque forming unites in 100 µl of media) and the virus was allowed to adsorb to the cells for 2 hours at room temperature. The compound of Example 5 was dissolved in 100 percent dimethylsulfoxide at a concentration of 20 mgs/ml and diluted with media to yield final concentrations of 50, 25, 12.5, 6.25, 3.13, 1.6, 0.8, 0.4, 0.2, and 0.1 µg/ml in one set of experiments and 32, 10, 3.2, 1, and 0.32 µg/ml in another set of experiments. Each concentration was done in duplicate. In all experiments, Cytovene (DHPG) was used as a positive control.
The infected cells were incubated for 10 days at 37°C, 5 percent carbon dioxide, in an humidified incubator without changes of media. After incubation, the cells were fixed for at least 15 minutes with 10 percent formalin and rinsed with water. After rinsing, the cells were stained for at least 15 minutes with crystal violet and allowed to dry. HCMV induced plaques were counted with the aid of an iverted microscope. The number of viral plaques appearing in cells treated with each concentration of the Example 5 compound was compared to the number of viral plaques in cells left untreated ("no-drug control") and the percent inhibition of viral plaque formation was calculated. The concentration of the Example 5 compound required to inhibit viral plaque formation by 50 percent was determined using linear regression analysis.

[2] = system: human leukemia cells (CCRF-CEM cell line); test: Growth inhibition of human leukemia cells (CCRF-CEM cytotoxicity screen); format: cell-based; details: Homo sapiens, CCRF-CEM
Source text: In another aspect, the invention provides a method of treating susceptible neoplasms in mammals comprising administering to a mammal in need of such treatment a pharmaceutically effective amount of a compound of formula (I). […] The treatment contemplated by the present method includes both medical therapeutic and prophylactic treatment, as appropriate. The specific dosage level of the compound administered according to this invention will, of course, be determined by the circumstances surrounding the case, including, for example, the particular compound administered, the route of administration, and the condition being treated. The compounds are effectively administered orally, topically, or parenterally. […] The representative compounds of formula (I) employed in the present invention are cytotoxic as they inhibit the growth of rapidly dividing human leukemia cells (CCRF-CEM cell line). Table 1 below gives the results of testing several compounds representative of formula (I).

[3] = system: Hepatitis B Virus; test: Hepatitis B Virus Test (HBV DNA in supernatant of Hep10A cells, PCR / Southern blot); format: cell-based, human Hepatitis B Virus (HBV); details: 240 h
Source text: Plasmids were constructed using standard recombinant DNA techniques; see Sambrook, J., et al., Molecular Cloning: A Laboratory Manual, 2nd Edition (1989), Cold Spring Harbor Press, Cold Spring Harbor, NY. Plasmid pTHBV contains a head-to-tail dimer of the human Hepatitis B Virus (HBV) genome, subtype adw, clone into the EcoR I site of pUC9. […] and subcloned into the Sal I site of pTHBV after a two base fill-in reaction with the Klenow fragment of E. coli DNA polymerase I.
HepG2 cells (human hepatoblastoma, ATCC HB 8065) were routinely passaged in growth medium consisting of EARLE'S minimal essential media (Grand Island Biological Company (GIBCO) Bethesda Research Laboratories (BRL), Life Technologies, Inc., Gathersburg, MD.) supplemented with sodium pyruvate, 10 percent fetal bovine serum, 100 units/ml penicillin, and 100 µg/ml streptomycin. Hep10A cells were derived from HepG2 cells. Briefly, HepG2 cells were seeded into 60 mm culture dishes in growth medium, and when approximately 50 percent confluent, were transfected with pTHBVneo using the calcium phosphate precipitation method described by Graham, F.L. and Van der Eb in Virology, 52, p 456-467 (1973). After four hours of post-transfection, the cells were shocked with 10 percent dimethylsulfoxide and 20 percent glucose for 5 minutes, after which they were allowed to recover for 24 horus. The transfected cells were passaged and reseeded in the presence of growth medium containing 800 µg/ml geneticin. The cells were monitored for the appearance of geneticin resistant cells. A genecitin resistant cell line was established, and routinely passaged in growth medium containing 400 µg/ml geneticin. This cell line will be referred to as Hep10A.
Hep10A cells were seeded into 96-well microtiter plates at a density of approximately 50,000 cells per well, allowed to grow to confluence, and maintained at confluence for 2 to 4 days to allow Hepatitus B Virus derivative HBV DNA levels to stabilize; see Sells, M.A., et al., J. Virol., 62, p 2836-2844 (1987) and Korba, B.E., et al., Antiviral Res., 15, p 217-228 (1991). At this time, cells were treated with 2'-deoxy-2'-fluoroarabino-5-iodouridine (FIAU) and the compound of Example 5 for 10 days, with daily changes of media containing fresh drug. FIAU was used as a positive control. On day 10, culture supernatant samples were taken and stored at 4°C until needed. PCR analysis was performed on supernatant samples using appropriate primers to amplify a 477 base pair fragment from the "a" determinant of the surface antigen gene of HBV subtype adw. Following eletrophoresis through agarose gels, the DNA was transferred to nylon membranes (Optiblot™, IBI, New Haven, CT) by capillary action (Southern, 1975) using 1X saline sodium citrate (SSC) (1X SSC=0.15 M NaCl, 0.015 M sodium citrate). After baking in vacuo for 30 minutes, the blots were hybridized for 15 to 18 hours to 1x10⁶ cpm/ml of […] the method of random priming (Feinberg and Vogelstein, 1983). Hybridization was carried out at 42°C using 50 percent N,N-dimethylformamide, 6X saline sodium phosphate ethylenediamine tetraacetic acid (SSPE), 1.0 percent sodium dodyl sulfate (SDS), and 50 µg/ml salmon sperm DNA (1X SSPE=0.18 M NaCl; […] NaH₂PO₄, pH 7.4; 1 mmol ethylene diamine tetraacetic acid (EDTA)). The hybridized blots were washed as follows: twice in 2X SSC/0.1 percent SDS at room temperature for 1 hour, once in 0.1X SSC/0.1 percent SDS at room temperature for 30 minutes, and once in 0.1x SSC/0.1 percent supplemented with SDS at 65°C for 15 minutes. The filters were exposed to x-ray film and quantitated by densitometry.

[4] = read-out: Percent Inhibition at Specified µg/ml conc.

## CNc1nc(N)nc2c1ncn2[C@@H]1O[C@H](CO)[C@@H](O)C1(F)F [Example 5, 2-deoxy-2,2-difluoro-D-ribofuranosyl-1-β-(2-amino-6-methylaminopurine)]
[1]; Human betaherpesvirus 5, AD169, 240 h, 0.2 µg/ml, WI-38 cells, 10 days
  inhibition at 0.2 µg/mL: 24%
[1]; Human betaherpesvirus 5, AD169, 240 h, 0.4 µg/ml, WI-38 cells, 10 days
  inhibition at 0.4 µg/mL: 17.2%
[1]; Human betaherpesvirus 5, AD169, 240 h, 0.8 µg/ml, WI-38 cells, 10 days
  inhibition at 0.8 µg/mL: 38%
[1]; Human betaherpesvirus 5, AD169, 240 h, 1.6 µg/ml, WI-38 cells, 10 days
  inhibition at 1.6 µg/mL: 41.4%
[1]; Human betaherpesvirus 5, AD169, 240 h, 6.25 µg/ml, WI-38 cells, 10 days
  inhibition at 6.25 µg/mL: 86.2%
[1]; Human betaherpesvirus 5, AD169, 240 h, 12.5 µg/ml, WI-38 cells, 10 days
  inhibition at 12.5 µg/mL: 81%
[1]; Human betaherpesvirus 5, AD169, 240 h, 25 µg/ml, WI-38 cells, 10 days
  inhibition at 25 µg/mL: 89.6%
[1]; Human betaherpesvirus 5, AD169, WI-38, 240 h
  inhibition at 3.12 µg/mL: 62%
[2]
  IC50: 0.054 µg/mL (≈ 0.171 µM)
[3]; [4]
  inhibition at 0.1 µg/mL: 56.9%
  inhibition at 1 µg/mL: 81.9%
  inhibition at 10 µg/mL: 84.6%
  inhibition at 100 µg/mL: 83.9%
[3]; read-out: concentration required to inhibit HBV DNA replication by 50 percent
  IC50: < 0.1 µg/mL
